The NIST ThermoML archive (doi:10.1007/s10765-005-8096-3)
± gives the expanded uncertainty stated by the source.

Assay: refractive index (Na D-line) (dimensionless); xn = mol fraction of the nth substance listed
Conditions: 101 kPa, Liquid, Standard Abbe refractometry

CCCCOC(C)=O [butyl ethanoate] + Cc1ccccc1
refractive index
Conditions	293.15 K	298.15 K	303.15 K	308.15 K	313.15 K
x1 = 0.0499	1.49044 ± 0.00073	1.48757 ± 0.00073	1.48472 ± 0.00073	1.4818 ± 0.00073	1.47891 ± 0.00073
x1 = 0.0998	1.48428 ± 0.00072	1.48149 ± 0.00072	1.47861 ± 0.00073	1.47573 ± 0.00073	1.47285 ± 0.00072
x1 = 0.15	1.47815 ± 0.00072	1.47538 ± 0.00072	1.47251 ± 0.00073	1.46966 ± 0.00072	1.46684 ± 0.00071
x1 = 0.2001	1.47222 ± 0.00072	1.46948 ± 0.00071	1.46668 ± 0.00072	1.46382 ± 0.00072	1.46101 ± 0.00071
x1 = 0.2502	1.46644 ± 0.00073	1.46358 ± 0.00072	1.46079 ± 0.0007	1.45814 ± 0.0007	1.45535 ± 0.0007
x1 = 0.2985	1.461 ± 0.00071	1.45826 ± 0.00071	1.45547 ± 0.00071	1.45277 ± 0.0007	1.4501 ± 0.0007
x1 = 0.3447	1.4559 ± 0.00071	1.45318 ± 0.00071	1.45041 ± 0.00071	1.44769 ± 0.00071	1.44494 ± 0.0007
x1 = 0.4011	1.4498 ± 0.00072	1.44705 ± 0.00071	1.4443 ± 0.00071	1.44161 ± 0.0007	1.4389 ± 0.00069
x1 = 0.4468	1.44504 ± 0.0007	1.44235 ± 0.0007	1.4397 ± 0.00071	1.43691 ± 0.00071	1.43423 ± 0.0007
x1 = 0.4994	1.43964 ± 0.00071	1.43696 ± 0.0007	1.4343 ± 0.0007	1.43157 ± 0.0007	1.42895 ± 0.00069
x1 = 0.5524	1.4343 ± 0.0007	1.43166 ± 0.00069	1.42902 ± 0.0007	1.42632 ± 0.0007	1.42368 ± 0.00069
x1 = 0.5999	1.42964 ± 0.00071	1.42695 ± 0.0007	1.42432 ± 0.0007	1.42164 ± 0.00069	1.41904 ± 0.00068
x1 = 0.6517	1.42468 ± 0.00069	1.42207 ± 0.00069	1.41943 ± 0.0007	1.41676 ± 0.00069	1.41415 ± 0.00068
x1 = 0.7	1.42017 ± 0.00069	1.41756 ± 0.00069	1.41498 ± 0.00069	1.41233 ± 0.00069	1.40974 ± 0.00068
x1 = 0.7516	1.41545 ± 0.00069	1.41287 ± 0.00069	1.41026 ± 0.00068	1.40773 ± 0.00068	1.40511 ± 0.00068
x1 = 0.7972	1.41141 ± 0.00068	1.40888 ± 0.00068	1.40629 ± 0.00068	1.40371 ± 0.00068	1.4012 ± 0.00068
x1 = 0.8404	1.4076 ± 0.00068	1.40508 ± 0.00068	1.4025 ± 0.0007	1.39992 ± 0.00068	1.39741 ± 0.00066
x1 = 0.8971	1.40273 ± 0.00068	1.40025 ± 0.00067	1.39777 ± 0.00068	1.39518 ± 0.00068	1.39265 ± 0.00066
x1 = 0.9449	1.39881 ± 0.00067	1.3963 ± 0.00067	1.39384 ± 0.00067	1.39133 ± 0.00067	1.38884 ± 0.00067
